Assay results taken from patent US20220168442A1, “ARTIFICIAL T-CELL STIMULATING MATRIX FOR IMMUNOTHERAPY” (The Johns Hopkins University, priority 2019, published 2022).
Ends that are not written are not given here.

Experiments:
Format in all cases: cell-based, mouse
[1] = tested on: PMEL CD8+ T cells; assay: aTM with laminin or cyclic RGD attached, T cell expansion; settings: laminin 20 μg/mL or cyclic RGD 100 μM incorporated into aTM
Description: HA solution was prepared as previously described. Anti-CD3 and anti-CD28 antibodies were purchased respectively from BioXCell (145-2C11; West Lebanon, N.H., USA) and BioLegend (37.51; San Diego, Calif., USA). […] PEGDA crosslinker was added to reduced MHC-Ig dimers, anti-CD3 and anti-CD28 antibody solutions to a final concentration of 0.5% PEGDA for preparation for crosslinking. Prior to hydrogel formation, MHC-Ig dimers or anti-CD3 antibodies and anti-CD28 co-stimulatory signals with 0.5% PEGDA were added to the HA solution to directly attach signals on HA through thiol-diene chemistry. The HA-antibody solution was then mixed with PEGDA crosslinker at a 4:1 ratio to be plated. The aTM was allowed to form within flat-bottomed tissue culture plates to form a complete layer for at least 1 hour prior to washing 3 times with 1×PBS to remove any unbound stimulatory signal, and cells were subsequently plated. To investigate the effects of extracellular matrix (ECM) protein attachment, cyclic RGD (CCRRGDWLC (SEQ ID NO: 1)), which was synthesized by solid phase methods as described previously (Li et al., Stem Cells Transl. Med., 3: 662-670 (2014)), or laminin (ThermoFisher) were added to make a HA solution with protein concentration of 100 μM and 20 μg/mL, respectively, prior to the hydrogel formation. […]

[2] = tested on: murine CD8+ T cells; assay: aLN ex vivo CD8+ T cell expansion and phenotype, day 7
Description: Artificial lymph nodes (aLNs) were synthesized by mixing 0.8 w/v % thiolated HA with either 0.1 or 2 w/v % of the crosslinker PEG-diacrylate (PEGDA), which was pre-mixed with 5 μg/mL thiolated anti-CD3 and anti-CD28 antibodies, and either no protein, 100 μM cyclic RGD, or 20 μg/mL laminin was added. Isolated murine CD8+ T cells were added to the surface of the aLNs. On day 7 viable cells were harvested, counted, and stained for phenotypic markers for flow cytometry (CD8, CD44, CD62L). For in vivo experiments, B6 mice received subcutaneous injection of aLN treatment (no protein, 570 Pa, with antigen-specific stimulation from KbSIY for 2C CD8+ T cells) or PBS. 2C CD8+ T cells were isolated, labeled with CellTrace CFSE dye and injected retro-orbitally on the same day. On days 3 and 6, blood samples were taken for CFSE division analysis via flow cytometry.

[3] = tested on: B6 CD8+ T cells; assay: CD8+ T cell fold expansion after seven days of stimulation on aTM; settings: added to culture on 0.5-kPa aTM; 100 μM; same amount of stimulatory ligand
Description: Murine cells were obtained from adult mouse lymph nodes and spleens. Obtained cells were treated with ACK lysing buffer to lyse red blood cells and filtered through cell strainers to isolate splenocytes. PBMCs from healthy donors were isolated by Ficoll-Paque PLUS gradient centrifugation (GE Healthcare). CD8+T lymphocytes were then isolated from splenocytes or PBMCs by negative selection using CD8+ isolation kits and magnetic columns from Miltenyi Biotech (Auburn, Calif., USA) according to the manufacturer's protocol. […]
CD8+ T cells were isolated as previous described and resuspended in 1 mL T cell culture media. […] The CFSE fluorescence intensity was measured using BD FACSCALIBUR™ flow cytometer. Cell proliferation was analyzed using FLOWJO™ with diluted CFSE fluorescence peaks signifying population after each round of cell division. A subset of the cells were allowed to expand for 7 days and viable cells were counted with a hemocytometer to determine fold expansion. […]

CCRRGDWLC (SEQ ID NO: 1) (also: cyclic (mode not given here)) [cyclic RGD cell-adhesive peptide attached to aTM / aLN]
effect of cell-adhesive ligands on stimulation of antigen-specific PMEL CD8+ T cells [1]: further increased T cell proliferation
percent memory T cells ([2]; 570-Pa aLN, day 7): increased
total expansion compared to no protein and laminin ([2]; attached to softer aLNs): nearly doubled total expansion

laminin
percent activated T cells ([2]; 570-Pa aLN, day 7): increased

Cc1ccc2c(c1)C(=O)C1(O)CCN(c3ccccc3)C1=N2 (centres unmarked) [blebbistatin]
CD8+ T cell expansion in the presence of the inhibitor [3]: abolished
